Assay results as given in paper PMC5421785, “Citrullination only infrequently impacts peptide binding to HLA class II MHC” (PLoS ONE, 2017).
Read-outs that look alike come from different tables or passages of the source. Each block holds one compound with its values, some of them ahead of it. Square brackets hold non-standard residues; d marks the D form. Ends that are not written are not given here. Peptide text beside a SMILES is read from it. Cit = NC(=O)NCCC[C@H](N)C(=O)O

Tests used:
HLA-DRB1*04:01 = target: T1, HLA-DRB1*04:01 (Homo sapiens, UniProt P01903+P01911, A100K/A169T/F76Y/I96L/K127E/L162R/M171V/N62H/P40V/Q125Y/R42H/S133A/S149N/S66Y/V115G/V209L/W38E); experiment: HLA class II peptide binding, inhibition of radiolabeled peptide binding to purified MHC
T1 construct: EBV transformed homozygous cell lines were used as sources of MHC molecules; endogenous in cells; host or cells: EBV transformed homozygous cell lines

HLA-DRB1*01:01 = target: T2, HLA-DRB1*01:01 (Homo sapiens, UniProt P01903+P01911, A100R/D57E/F55L/F60I/F76Y/I96L/L162R/M171V/P40L/Q125E/R42F/V115G/Y59C); experiment: as above
T2 construct: EBV transformed homozygous cell lines were used as sources of MHC molecules; endogenous in cells; host or cells: EBV transformed homozygous cell lines

[1] = wild-type (unmodified Arg) 15-mer peptide, purified HLA-DRB1*04:01, read-out: DRB1*04:01 binding capacity, WT peptide (IC50 nM)
[2] = wild-type (unmodified Arg) 15-mer peptide, purified HLA-DRB1*01:01, read-out: DRB1*01:01 binding capacity, WT peptide (IC50 nM)
[3] = citrullinated 15-mer peptide (X = citrulline), purified HLA-DRB1*04:01, read-out: DRB1*04:01 binding capacity, Cit peptide (IC50 nM)
[4] = citrullinated 15-mer peptide (X = citrulline), purified HLA-DRB1*01:01, read-out: DRB1*01:01 binding capacity, Cit peptide (IC50 nM)
[5] = citrullinated 15-mer (X), purified MHC, inhibition of radiolabeled peptide binding, dash = IC50 >40,000 nM, read-out: DRB1*04:01 binding capacity, Cit peptide (IC50 nM)
[6] = citrullinated 15-mer (X), purified MHC, inhibition of radiolabeled peptide binding, dash = IC50 >40,000 nM, read-out: DRB1*01:01 binding capacity, Cit peptide (IC50 nM)
[7] = read-out: DRB1*04:01 binding capacity, WT peptide (IC50 nM)
[8] = read-out: DRB1*01:01 binding capacity, WT peptide (IC50 nM)

Compound: GPTGVTGPKGARGAQ [Collagen 876 WT]
IC50 (HLA-DRB1*04:01; [1]): > 40000 nM
IC50 (HLA-DRB1*01:01; [2]): 952 nM

Compound: CSCC[C@H](NC(=O)[C@H](CCC(=O)O)NC(=O)[C@H](CCCNC(N)=O)NC(=O)[C@H](CCSC)NC(=O)[C@H](CCC(N)=O)NC(=O)[C@H](CCCNC(=N)N)NC(=O)[C@H](CCC(=O)O)NC(=O)[C@H](CC(C)C)NC(=O)[C@H](CO)NC(=O)[C@H](CCC(=O)O)NC(=O)[C@H](CC(N)=O)NC(=O)[C@@H](N)[C@@H](C)O)C(=O)N[C@@H](CCC(=O)O)C(=O)N[C@@H](CCC(=O)O)C(=O)N[C@@H](CC(N)=O)C(=O)O [TNESLERQMXEMEEN] (H-TNESLERQM[Cit]EMEEN-OH)
IC50 (HLA-DRB1*04:01; [3]): > 40000 nM
IC50 (HLA-DRB1*01:01; [4]): 29700 nM

Compound: CC(C)C[C@H](NC(=O)[C@H](CO)NC(=O)[C@H](C)NC(=O)[C@H](CC(N)=O)NC(=O)[C@@H](N)CC(=O)O)C(=O)N[C@@H](C)C(=O)N[C@@H](CCCNC(N)=O)C(=O)N[C@@H](CC(C)C)C(=O)N[C@@H](CC(=O)O)C(=O)N[C@@H](CC(C)C)C(=O)N[C@@H](CCC(=O)O)C(=O)N[C@@H](CCCNC(=N)N)C(=O)N[C@@H](CCCCN)C(=O)N[C@H](C(=O)N[C@@H](CCC(=O)O)C(=O)O)C(C)C [DNASLAXLDLERKVE] (H-DNASLA[Cit]LDLERKVE-OH)
IC50 (HLA-DRB1*04:01; [5]): > 40000 nM
IC50 (HLA-DRB1*01:01; [6]): 16300 nM

Compound: CC[C@H](C)[C@H](N)C(=O)N[C@@H](CC(=O)O)C(=O)N[C@H](C(=O)N[C@@H](CC(=O)O)C(=O)N[C@H](C(=O)N[C@@H](CO)C(=O)N[C@@H](CCCCN)C(=O)N1CCC[C@H]1C(=O)N[C@@H](CC(=O)O)C(=O)N[C@@H](CC(C)C)C(=O)N[C@H](C(=O)N[C@@H](C)C(=O)N[C@@H](C)C(=O)N[C@@H](CC(C)C)C(=O)N[C@@H](CCCNC(N)=O)C(=O)O)[C@@H](C)O)C(C)C)C(C)C [IDVDVSKPDLTAALX] (H-IDVDVSKPDLTAAL[Cit]-OH)
IC50 (HLA-DRB1*04:01; [5]): 23500 nM
IC50 (HLA-DRB1*01:01; [6]): 935 nM

Compound: CC[C@H](C)[C@H](NC(=O)[C@H](C)NC(=O)[C@H](CC(=O)O)NC(=O)[C@H](C)NC(=O)[C@H](CC(C)C)NC(=O)[C@H](CO)NC(=O)[C@@H](N)Cc1ccccc1)C(=O)N[C@@H](CC(N)=O)C(=O)N[C@H](C(=O)N[C@@H](CCC(=O)O)C(=O)N[C@@H](Cc1ccccc1)C(=O)N[C@@H](CCCCN)C(=O)N[C@@H](CC(N)=O)C(=O)N[C@H](C(=O)N[C@@H](CCCNC(N)=O)C(=O)O)[C@@H](C)O)[C@@H](C)O [FSLADAINTEFKNTX] (H-FSLADAINTEFKNT[Cit]-OH)
IC50 (HLA-DRB1*04:01; [5]): 22600 nM
IC50 (HLA-DRB1*01:01; [6]): 41 nM

Compound: CC(C)C[C@H](NC(=O)[C@H](CO)NC(=O)[C@H](CCC(N)=O)NC(=O)[C@@H](NC(=O)[C@H](CCC(N)=O)NC(=O)[C@H](CCCNC(=N)N)NC(=O)[C@H](CCCNC(N)=O)NC(=O)[C@H](Cc1ccc(O)cc1)NC(=O)[C@H](CCC(=O)O)NC(=O)[C@@H](NC(=O)[C@@H](N)CO)[C@@H](C)O)C(C)C)C(=O)N[C@H](C(=O)N[C@@H](CS)C(=O)N[C@@H](CCC(=O)O)C(=O)N[C@H](C(=O)O)C(C)C)[C@@H](C)O [STEYXRQVQSLTCEV] (H-STEY[Cit]RQVQSLTCEV-OH)
IC50 (HLA-DRB1*04:01; [3]): 1510 nM
IC50 (HLA-DRB1*01:01; [4]): 97 nM

Next, values leading:

IC50 (HLA-DRB1*04:01; [7]): 9750 nM
IC50 (HLA-DRB1*01:01; [8]): 440 nM
Compound: YRRMFGGPGTASRPS [Vimentin 11 WT]

IC50 (HLA-DRB1*04:01; [7]): 17900 nM
IC50 (HLA-DRB1*01:01; [8]): 5150 nM
Compound: TNEKVELQELNDRFA [Vimentin 101 WT]

IC50 (HLA-DRB1*04:01; [5]): 3720 nM
IC50 (HLA-DRB1*01:01; [6]): 12 nM
Compound: CC(C)C[C@H](NC(=O)[C@H](CCCNC(=N)N)NC(=O)[C@@H](NC(=O)[C@H](C)NC(=O)[C@H](CO)NC(=O)[C@H](CO)NC(=O)[C@H](CCCNC(N)=O)NC(=O)[C@@H](NC(=O)[C@H](C)NC(=O)[C@@H](N)Cc1ccc(O)cc1)[C@@H](C)O)C(C)C)C(=O)N[C@@H](CCCNC(=N)N)C(=O)N[C@@H](CO)C(=O)N[C@@H](CO)C(=O)N[C@H](C(=O)N1CCC[C@H]1C(=O)O)C(C)C [YATXSSAVRLRSSVP] (H-YAT[Cit]SSAVRLRSSVP-OH)

IC50 (HLA-DRB1*04:01; [1]): 11500 nM
IC50 (HLA-DRB1*01:01; [2]): 625 nM
Compound: ANYQDTIGRLQDEIQ [Vimentin 356 WT]
